For orientation: IC50 means the concentration needed to halve the response being measured. For orientation: EC50 means the concentration giving half of the maximal effect.

The target of one assay is human SMG1 enzyme (Homo sapiens, UniProt Q96Q15). Put plainly: Measurement of SMG1 kinase activity (ADP-Glo Kinase Assay). It counts as biochemical. The note with it: purified human SMG1 enzyme 5 nM, Upf1 peptide substrate, ATP 4 μM; qAC50 synonymous with IC50; read-out: Test Example 1 ADP-Glo IC50. The method, boiled down: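 ADP-Glo luminescence readout of ADP made by 5 nM human SMG1 acting on 8 μg/mL Upf1 peptide with 4 μM ATP for 60 min at room temperature, after a 15 min enzyme–compound preincubation (1% DMSO; pH 7.5 HEPES, MnCl2). Activity scaled between DMSO and no-enzyme wells; IC50 by four-parameter logistic regression.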
Chain of human SMG1 enzyme (Q96Q15 whole entry): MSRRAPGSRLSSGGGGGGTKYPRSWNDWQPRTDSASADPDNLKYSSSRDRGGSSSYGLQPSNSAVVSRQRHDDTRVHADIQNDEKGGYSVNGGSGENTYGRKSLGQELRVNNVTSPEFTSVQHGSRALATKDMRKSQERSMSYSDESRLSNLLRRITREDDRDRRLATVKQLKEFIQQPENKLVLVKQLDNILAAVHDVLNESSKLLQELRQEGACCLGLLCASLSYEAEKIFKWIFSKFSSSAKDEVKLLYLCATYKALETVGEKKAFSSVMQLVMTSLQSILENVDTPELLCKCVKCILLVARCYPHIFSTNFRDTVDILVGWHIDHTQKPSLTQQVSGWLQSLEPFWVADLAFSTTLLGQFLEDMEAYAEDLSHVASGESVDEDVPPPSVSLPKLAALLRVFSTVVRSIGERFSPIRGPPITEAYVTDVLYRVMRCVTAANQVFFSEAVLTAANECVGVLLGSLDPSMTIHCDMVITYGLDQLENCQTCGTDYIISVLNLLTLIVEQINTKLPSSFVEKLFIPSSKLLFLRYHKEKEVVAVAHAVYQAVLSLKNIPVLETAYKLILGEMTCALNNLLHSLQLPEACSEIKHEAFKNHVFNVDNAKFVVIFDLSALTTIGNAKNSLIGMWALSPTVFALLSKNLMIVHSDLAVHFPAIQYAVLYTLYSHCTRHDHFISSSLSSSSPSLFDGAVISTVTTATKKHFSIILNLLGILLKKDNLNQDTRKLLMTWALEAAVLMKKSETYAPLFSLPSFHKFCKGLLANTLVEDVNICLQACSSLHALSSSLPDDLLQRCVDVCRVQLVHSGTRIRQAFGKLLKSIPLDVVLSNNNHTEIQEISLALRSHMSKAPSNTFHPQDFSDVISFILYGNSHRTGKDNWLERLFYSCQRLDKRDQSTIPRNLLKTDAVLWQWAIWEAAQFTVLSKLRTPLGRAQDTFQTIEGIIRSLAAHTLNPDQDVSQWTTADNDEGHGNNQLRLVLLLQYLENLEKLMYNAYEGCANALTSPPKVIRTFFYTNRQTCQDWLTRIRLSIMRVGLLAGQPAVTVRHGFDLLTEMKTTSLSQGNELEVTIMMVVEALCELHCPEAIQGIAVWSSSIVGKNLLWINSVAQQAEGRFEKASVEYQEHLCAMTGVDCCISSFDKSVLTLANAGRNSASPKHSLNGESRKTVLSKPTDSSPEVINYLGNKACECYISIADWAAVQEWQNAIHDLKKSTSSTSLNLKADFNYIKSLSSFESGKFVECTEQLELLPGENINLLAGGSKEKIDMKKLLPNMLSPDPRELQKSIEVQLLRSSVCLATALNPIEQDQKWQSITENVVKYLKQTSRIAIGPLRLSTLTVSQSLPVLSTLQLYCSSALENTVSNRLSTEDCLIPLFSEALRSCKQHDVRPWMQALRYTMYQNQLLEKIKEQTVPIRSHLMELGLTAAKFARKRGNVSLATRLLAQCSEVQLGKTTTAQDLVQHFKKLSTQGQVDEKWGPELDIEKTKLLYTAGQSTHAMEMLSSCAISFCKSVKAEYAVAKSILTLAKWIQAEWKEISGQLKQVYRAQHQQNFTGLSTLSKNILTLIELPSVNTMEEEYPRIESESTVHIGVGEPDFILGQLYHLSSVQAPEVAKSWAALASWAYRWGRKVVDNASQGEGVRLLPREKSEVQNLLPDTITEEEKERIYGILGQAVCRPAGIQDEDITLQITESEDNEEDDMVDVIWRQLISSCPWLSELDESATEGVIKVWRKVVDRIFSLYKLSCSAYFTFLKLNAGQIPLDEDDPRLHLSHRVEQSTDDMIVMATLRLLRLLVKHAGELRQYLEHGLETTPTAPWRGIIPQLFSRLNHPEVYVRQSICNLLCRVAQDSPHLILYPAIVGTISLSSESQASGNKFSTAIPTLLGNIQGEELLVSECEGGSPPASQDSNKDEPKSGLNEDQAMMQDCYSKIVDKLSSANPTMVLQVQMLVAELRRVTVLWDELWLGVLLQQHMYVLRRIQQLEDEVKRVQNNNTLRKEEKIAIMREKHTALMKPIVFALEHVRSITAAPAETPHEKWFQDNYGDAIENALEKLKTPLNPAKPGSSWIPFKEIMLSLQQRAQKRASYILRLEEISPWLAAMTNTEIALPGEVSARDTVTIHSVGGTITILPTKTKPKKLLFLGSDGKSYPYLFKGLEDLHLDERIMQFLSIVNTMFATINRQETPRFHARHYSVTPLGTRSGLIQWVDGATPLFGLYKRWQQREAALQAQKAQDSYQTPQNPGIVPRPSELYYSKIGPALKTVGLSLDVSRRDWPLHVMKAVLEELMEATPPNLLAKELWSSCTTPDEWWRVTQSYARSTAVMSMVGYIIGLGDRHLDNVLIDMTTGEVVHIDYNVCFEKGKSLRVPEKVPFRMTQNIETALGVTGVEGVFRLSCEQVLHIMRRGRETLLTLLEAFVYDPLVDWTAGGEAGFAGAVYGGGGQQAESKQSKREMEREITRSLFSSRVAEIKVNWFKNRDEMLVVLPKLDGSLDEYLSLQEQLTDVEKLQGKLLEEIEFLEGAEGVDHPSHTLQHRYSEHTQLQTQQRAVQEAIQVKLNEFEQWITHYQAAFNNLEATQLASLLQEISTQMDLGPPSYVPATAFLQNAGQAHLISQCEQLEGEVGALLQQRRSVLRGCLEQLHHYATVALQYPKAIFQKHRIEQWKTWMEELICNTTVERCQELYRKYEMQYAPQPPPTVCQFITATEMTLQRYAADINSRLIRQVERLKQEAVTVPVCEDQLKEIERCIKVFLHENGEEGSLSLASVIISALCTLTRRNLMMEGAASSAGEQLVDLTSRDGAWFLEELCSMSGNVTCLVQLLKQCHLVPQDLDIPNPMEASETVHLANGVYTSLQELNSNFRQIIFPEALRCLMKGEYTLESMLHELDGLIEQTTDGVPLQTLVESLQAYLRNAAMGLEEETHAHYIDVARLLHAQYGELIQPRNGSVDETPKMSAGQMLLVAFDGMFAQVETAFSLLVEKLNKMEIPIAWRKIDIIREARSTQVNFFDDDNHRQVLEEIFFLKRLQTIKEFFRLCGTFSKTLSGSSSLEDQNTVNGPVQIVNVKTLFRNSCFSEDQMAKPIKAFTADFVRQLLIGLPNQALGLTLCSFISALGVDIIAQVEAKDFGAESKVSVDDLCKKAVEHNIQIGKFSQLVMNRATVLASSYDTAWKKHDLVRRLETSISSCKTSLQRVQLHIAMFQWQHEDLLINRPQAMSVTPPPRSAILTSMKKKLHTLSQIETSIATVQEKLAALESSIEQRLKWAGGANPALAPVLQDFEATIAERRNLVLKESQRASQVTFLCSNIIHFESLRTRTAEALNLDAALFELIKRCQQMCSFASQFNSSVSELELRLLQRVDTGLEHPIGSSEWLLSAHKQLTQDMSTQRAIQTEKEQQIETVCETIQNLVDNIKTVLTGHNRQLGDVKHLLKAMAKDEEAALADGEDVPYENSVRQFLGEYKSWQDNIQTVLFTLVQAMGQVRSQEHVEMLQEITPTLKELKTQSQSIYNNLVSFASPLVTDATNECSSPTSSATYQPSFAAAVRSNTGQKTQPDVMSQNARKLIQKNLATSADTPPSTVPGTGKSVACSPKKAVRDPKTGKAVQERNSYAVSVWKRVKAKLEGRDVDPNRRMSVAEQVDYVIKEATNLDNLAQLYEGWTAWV
A general note: ADP-Glo first removes unused ATP, then detects ADP through luciferase.

Assay [1] has as its system Snhg1 transcript (NMD target gene) in EMT6 murine breast cancer cell line. As to the kind of experiment: Measurement of NMD inhibitory activity in cells (increase in Snhg1 transcript, real-time PCR). More on the design: species or system mouse. The following applies: Mus musculus, 6 hours treatment, concentration giving 1/2 of maximum Snhg1 fold change of positive control, read-out: Test Example 2 Cell-based Snhg1 EC50. The gist of the method:
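EMT6 cells treated with serially diluted compound (2% DMSO final) for 6 h; Snhg1 transcript quantified by real-time PCR (ΔΔCT, Tbp endogenous control, untreated wells set to 1). EC50 taken as concentration giving half the maximum fold change of a known NMD inhibitor positive control.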
(Real-time PCR tracks product formation cycle by cycle.)

Assay [2] relates to Snhg1 transcript in tumor tissues of mice subcutaneously implanted with EMT6 murine breast cancer cell line. As to the kind of experiment: Evaluation of NMD inhibitory activity in vivo (Snhg1 transcript in EMT6 tumor tissue after oral administration). The following applies: 10 mg/kg oral, 6 hours after administration, BALB/c mice. The method, boiled down: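 BALB/c mice bearing subcutaneous EMT6 tumours (engraftment confirmed day 7) dosed orally; tumours excised 6 h post-dose. Snhg1 RNA quantified by qRT-PCR, ΔΔCT with Gapdh as endogenous control, expressed relative to 0.5% methylcellulose vehicle group set at 1.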

For the compound `CS(=O)(=O)O.Cc1c(-c2nccc3[nH]c(=O)c(-c4nc5c(N[C@H](C)C(F)(F)F)nc(Cl)cc5[nH]4)cc23)cnn1C` [Example 152, 3-(6-chloro-4-{[(2R)-1,1,1-trifluoropropan-2-yl]amino}-1H-imidazo[4,5-c]pyridin-2-yl)-5-(1,5-dimethyl-1H-pyrazol-4-yl)-1,6-naphthyridin-2(1H)-one methanesulfonate], the IC50 on human SMG1 enzyme amounted to 1.1 nM. For the same compound, the EC50 in assay [1] worked out at 4 nM. The compound also displayed a Snhg1 fold change in assay [2] of 7.9.

On to `CS(=O)(=O)O.Cc1c(-c2nccc3[nH]c(=O)c(-c4nc5c(C6CCOCC6)nc(Cl)cc5[nH]4)cc23)c(C2CC2)nn1C(F)F` [Example 153, 3-[6-chloro-4-(tetrahydro-2H-pyran-4-yl)-1H-imidazo[4,5-c]pyridin-2-yl]-5-[3-cyclopropyl-1-(difluoromethyl)-5-methyl-1H-pyrazol-4-yl]-1,6-naphthyridin-2(1H)-one methanesulfonate], for which the IC50 at human SMG1 enzyme is 0.96 nM. In addition, the EC50 in assay [1] came to 5.1 nM. In addition, in assay [2], the Snhg1 fold change came out at 6.9.

`CCc1nc(Cl)cc2[nH]c(N3Cc4c(ccnc4-c4cnc(C5CC5)cc4OC)NC3=O)nc12.CS(=O)(=O)O` [Example 154, 3-(6-chloro-4-ethyl-1H-imidazo[4,5-c]pyridin-2-yl)-5-(6-cyclopropyl-4-methoxypyridin-3-yl)-3,4-dihydropyrido[4,3-d]pyrimidin-2(1H)-one methanesulfonate]: the IC50 on human SMG1 enzyme was 0.53 nM. The EC50 in assay [1] is 0.5 nM. For the same compound, the Snhg1 fold change in assay [2] was determined as 10.

The values above are taken from patent US20260109715A1, “IMIDAZOPYRIDINE DERIVATIVES WITH BICYCLIC STRUCTURE” (PUBLIC UNIVERSITY CORPORATION YOKOHAMA CITY UNIVERSITY, priority 2022, published 2026).
